Test results taken from article PMC10251674, “Synthesis of novel mono- and bis-pyrazolylthiazole derivatives as anti-liver cancer agents through EGFR/HER2 target inhibition” (BMC Chemistry, 2023).
Read-outs that look alike come from different tables or passages of the source.

Assays:
HepG2 liver cancer cells = experiment: MTT cytotoxicity assay against HepG2 cells; assay type: cell-based; conditions: for IC50 / viability at 100 µM: Homo sapiens; for viability at 100 µM: read-out: cell viability at the highest concentration
Method: (§1) HepG2 liver cancer cells and THLE2 normal liver cells were bought from the National Research Institute in Egypt and cultured in “RPMI-1640” media containing L-Glutamine (Lonza Verviers SPRL, Belgium, cat#12-604F). Fetal bovine serum (Sigma-Aldrich, MO, USA) and penicillin–streptomycin at a concentration of 10% and 1%, respectively, were added to both cell lines (Lonza, Belgium). All cells were incubated following routine tissue culture work. Cells were treated with the compounds at (0.01, 0.1, 1, 10, and 100 µM) concentrations. Cell viability was assessed after 48 h using MTT solution (Promega, USA). Finally, Absorbance was subsequently measured (at 570 nm) using ELISA microplate reader (BIO-RAD, model iMark, Japan). The percentage of cell viability was calculated, and IC50 values were recorded using the GraphPad prism 7, as previously reported in the literature.

THLE2 normal liver cells = experiment: MTT cytotoxicity assay against THLE2 cells; assay type: cell-based; conditions: for IC50: Homo sapiens, THLE-2, MTT assay, 48 h, n = 3, read-out: IC50 ± SD THLE2
Method: as §1

EGFR kinase = target: T1, EGFR kinase (Homo sapiens, UniProt P00533); experiment: EGFR kinase inhibitory assay (BPS Bioscience kit); assay type: biochemical; conditions: average of three replicates, five concentrations
T1 construct: purchased BPS Bioscience 40321
T1 sequence (P00533 25-1210): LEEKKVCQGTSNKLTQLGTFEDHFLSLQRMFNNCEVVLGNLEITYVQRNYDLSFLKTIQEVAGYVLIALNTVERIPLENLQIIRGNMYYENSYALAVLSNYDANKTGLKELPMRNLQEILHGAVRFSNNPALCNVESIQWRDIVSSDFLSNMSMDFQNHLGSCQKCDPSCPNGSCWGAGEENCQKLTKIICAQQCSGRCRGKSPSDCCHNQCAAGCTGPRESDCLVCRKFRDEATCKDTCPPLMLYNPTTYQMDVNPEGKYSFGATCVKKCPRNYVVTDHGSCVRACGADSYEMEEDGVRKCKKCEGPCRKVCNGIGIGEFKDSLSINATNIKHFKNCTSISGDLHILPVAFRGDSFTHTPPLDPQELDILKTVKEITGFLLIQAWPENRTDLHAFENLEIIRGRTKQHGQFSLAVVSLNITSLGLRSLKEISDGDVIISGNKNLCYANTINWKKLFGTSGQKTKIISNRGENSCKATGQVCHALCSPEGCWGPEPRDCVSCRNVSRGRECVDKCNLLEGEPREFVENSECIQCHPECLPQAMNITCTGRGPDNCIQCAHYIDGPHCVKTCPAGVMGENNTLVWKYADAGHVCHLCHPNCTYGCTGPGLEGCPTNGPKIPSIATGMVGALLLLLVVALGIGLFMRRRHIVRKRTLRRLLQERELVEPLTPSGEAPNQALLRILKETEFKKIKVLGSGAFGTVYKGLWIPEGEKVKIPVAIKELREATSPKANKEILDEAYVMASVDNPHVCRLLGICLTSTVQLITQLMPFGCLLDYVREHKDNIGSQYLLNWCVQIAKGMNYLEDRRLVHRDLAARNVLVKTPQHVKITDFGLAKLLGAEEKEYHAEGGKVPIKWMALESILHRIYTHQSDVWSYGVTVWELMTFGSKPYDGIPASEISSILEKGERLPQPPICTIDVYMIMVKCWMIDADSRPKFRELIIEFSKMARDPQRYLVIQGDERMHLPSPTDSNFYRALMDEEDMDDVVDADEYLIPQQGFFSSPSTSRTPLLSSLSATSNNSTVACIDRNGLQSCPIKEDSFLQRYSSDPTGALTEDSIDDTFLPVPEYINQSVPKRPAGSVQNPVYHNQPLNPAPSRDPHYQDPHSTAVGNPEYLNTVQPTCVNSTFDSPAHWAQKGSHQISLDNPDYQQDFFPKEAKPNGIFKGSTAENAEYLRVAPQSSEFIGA
Method: (§2) The autophosphorylation percentage inhibition of compounds was calculated by: 100-[Acontrol/Atreated-Control)] .

HER2 kinase = target: T2, HER2 kinase (Homo sapiens, UniProt P04626); experiment: HER2 kinase inhibitory assay (BPS Bioscience kit); assay type: biochemical; conditions: average of three replicates, five concentrations
T2 construct: purchased BPS Bioscience 40721
T2 sequence (P04626 23-1255): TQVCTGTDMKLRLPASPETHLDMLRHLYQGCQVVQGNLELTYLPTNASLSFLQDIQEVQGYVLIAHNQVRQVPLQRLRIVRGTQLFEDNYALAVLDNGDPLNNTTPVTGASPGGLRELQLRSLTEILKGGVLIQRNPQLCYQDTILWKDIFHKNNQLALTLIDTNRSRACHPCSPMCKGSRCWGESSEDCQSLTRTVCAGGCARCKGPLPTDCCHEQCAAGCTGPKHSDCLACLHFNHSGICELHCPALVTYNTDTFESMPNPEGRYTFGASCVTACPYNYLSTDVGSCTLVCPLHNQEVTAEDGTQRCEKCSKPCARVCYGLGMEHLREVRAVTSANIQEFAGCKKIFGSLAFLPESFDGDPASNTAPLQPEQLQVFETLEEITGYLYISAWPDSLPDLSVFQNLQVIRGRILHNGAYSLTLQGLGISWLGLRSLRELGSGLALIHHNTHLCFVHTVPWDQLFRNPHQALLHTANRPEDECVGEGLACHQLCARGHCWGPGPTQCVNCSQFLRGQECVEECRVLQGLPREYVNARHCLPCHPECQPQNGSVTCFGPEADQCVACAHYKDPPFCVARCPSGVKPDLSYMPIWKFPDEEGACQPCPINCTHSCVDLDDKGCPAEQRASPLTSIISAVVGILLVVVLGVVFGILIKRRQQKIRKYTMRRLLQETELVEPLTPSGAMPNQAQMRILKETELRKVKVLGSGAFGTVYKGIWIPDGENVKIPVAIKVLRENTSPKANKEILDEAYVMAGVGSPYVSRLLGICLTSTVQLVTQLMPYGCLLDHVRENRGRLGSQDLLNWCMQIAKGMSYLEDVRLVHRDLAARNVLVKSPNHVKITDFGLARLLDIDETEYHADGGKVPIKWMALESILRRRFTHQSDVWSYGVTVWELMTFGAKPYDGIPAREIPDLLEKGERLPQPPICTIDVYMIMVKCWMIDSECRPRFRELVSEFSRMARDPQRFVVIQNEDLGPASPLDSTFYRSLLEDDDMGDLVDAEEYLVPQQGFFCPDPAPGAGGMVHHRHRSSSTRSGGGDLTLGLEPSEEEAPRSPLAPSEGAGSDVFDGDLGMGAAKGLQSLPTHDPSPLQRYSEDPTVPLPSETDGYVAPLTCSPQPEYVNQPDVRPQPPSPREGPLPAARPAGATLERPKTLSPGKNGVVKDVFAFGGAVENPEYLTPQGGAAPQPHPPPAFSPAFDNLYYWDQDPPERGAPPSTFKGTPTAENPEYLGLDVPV
Method: as §2

P53 = experiment: RT-PCR gene expression of P53; assay type: cell-based; conditions: HepG2, treated at IC50, 48 h, normalised to β-actin, control = 1
Method: (§3) Genes of P53, Bax, and Caspases-3,8,9 were screened as proapoptotic genes, while Bcl-2 was screened as antiapoptotic, therefore, we measured their gene expression to investigate the apoptotic process. […] After treatment, RT-PCR reaction was carried out following routine work. The Ct values were then used to determine the fold change in gene expression between samples after normalization to the β-actin reference gene.

Bax = experiment: RT-PCR gene expression of Bax; assay type: cell-based; conditions: HepG2, treated at IC50, 48 h, normalised to β-actin, control = 1
Method: as §3

HepG2 cells [1] = experiment: Annexin V/PI staining, flow cytometry; assay type: cell-based; conditions: HepG2, treated at IC50, 48 h
Method: Overnight, 6-well culture plates were stocked with HepG2 cells (3–5 × 10^5 cells/well). […] After that, the cells and the medium supernatants were separated and washed with ice-cold PBS. The next step was suspending the cells in 100 µL of annexin binding buffer solution "25 mM CaCl2, 1.4 M NaCl, and 0.1 M Hepes/NaOH, pH 7.4″ and incubation with “Annexin V-FITC solution (1:100) and propidium iodide (PI)” at a concentration equals 10 µg/mL in the dark for 30 min. After the cells were stained, they were gathered by Cytoflex FACS equipment. We used cytExpert to examine the data.

HepG2 cells [2] = experiment: Cell cycle analysis by DNA flow cytometry; assay type: cell-based; conditions: HepG2, treated at IC50, 48 h
caspase-8 = experiment: RT-PCR gene expression of caspase-8; assay type: cell-based; conditions: HepG2, treated at IC50, 48 h, normalised to β-actin, control = 1
Method: as §3

caspase-9 = experiment: RT-PCR gene expression of caspase-9; assay type: cell-based; conditions: HepG2, treated at IC50, 48 h, normalised to β-actin, control = 1
Method: as §3

Bcl-2 = experiment: RT-PCR gene expression of Bcl-2; assay type: cell-based; conditions: HepG2, treated at IC50, 48 h, normalised to β-actin, control = 1
Method: as §3

caspase-3 = experiment: RT-PCR gene expression of caspase-3; assay type: cell-based; conditions: HepG2, treated at IC50, 48 h, normalised to β-actin, control = 1
Method: as §3

[3] = HepG2 cells, MTT assay, 48 h, n = 3, read-out: IC50 ± SD HepG2
[4] = HepG2, dose-response curve fit in Fig. 5
[5] = HepG2, dose-response curve fit in Fig. 5, read-out: IC50 (unit inferred)

| Structure (SMILES) | IC50 (HepG2 liver cancer cells; [3]) | IC50 (THLE2 normal liver cells) | melting point | further results |
| --- | --- | --- | --- | --- |
| O=C(c1ccc2ccccc2c1)c1cn(-c2ccccc2)nc1C(=O)CBr [Compound 6, 3-Bromoacetyl-4-(2-naphthoyl)-1-phenyl-1H-pyrazole] | 16.3 ± 0.29 µM | 34.5 ± 1.26 µM | – | – |
| O=C(c1ccc2ccccc2c1)c1cn(-c2ccccc2)nc1-c1csc(NN=Cc2ccccc2)n1 [Compound 8a, 2-(Benzylidenehydrazinyl)-4-(4-(2-naphthoyl)-1-phenyl-pyrazol-3-yl)thiazole] | 8.64 ± 0.29 µM | 46.2 ± 2.01 µM | 138 to 140 °C | – |
| Cc1ccc(C=NNc2nc(-c3nn(-c4ccccc4)cc3C(=O)c3ccc4ccccc4c3)cs2)cc1 [Compound 8b, 2-(4-Methylbenzylidenehydrazinyl)-4-(4-(2-naphthoyl)-1-phenylpyrazol-3-yl)thiazole] | 8.16 ± 0.34 µM | 41.6 ± 1.86 µM | – | – |
| COc1ccc(C=NNc2nc(-c3nn(-c4ccccc4)cc3C(=O)c3ccc4ccccc4c3)cs2)cc1 [Compound 8c, 2-(4-Methoxybenzylidenehydrazinyl)-4-(4-(2-naphthoyl)-1-phenyl-pyrazol-3-yl)thiazole] | 7.39 ± 0.29 µM | ≥ 50 µM | – | – |
| O=C(c1ccc2ccccc2c1)c1cn(-c2ccccc2)nc1-c1csc(NN=Cc2ccc([N+](=O)[O-])cc2)n1 [Compound 8d, 2-(4-Nitrobenzylidenehydrazinyl)-4-(4-(2-naphthoyl)-1-phenyl-pyrazol-3-yl)thiazole] | 11.3 ± 0.34 µM | ≥ 50 µM | 231 to 233 °C | – |
| CC(=NNc1nc(-c2nn(-c3ccccc3)cc2C(=O)c2ccc3ccccc3c2)cs1)c1cc2ccccc2o1 [Compound 12, 2-(2-(1-(Benzofuran-2-yl)ethylidene)hydrazinyl)-4-(4-(2-naphthoyl)-1-phenylpyrazol-3-yl)thiazole] | 5.48 ± 0.66 µM | ≥ 50 µM | 164 to 166 °C | – |
| CC(=NNc1nc(-c2nn(-c3ccccc3)cc2C(=O)c2ccc3ccccc3c2)cs1)c1nc2ccccc2s1 [Compound 13, 2-(2-(1-(Benzothiazol-2-yl)ethylidene)hydrazinyl)-4-(4-(2-naphthoyl)-1-phenylpyrazol-3-yl)-thiazole] | 5.16 ± 0.29 µM | ≥ 50 µM | 143 to 145 °C | – |
| CC(=NNc1nc(-c2nn(-c3ccccc3)cc2C(=O)c2ccc3ccccc3c2)cs1)c1cc2ccccc2oc1=O [Compound 14, 2-(2-(1-(Coumarin-3-yl)ethylidene)hydrazinyl)-4-(4-(2-naphthoyl)-1-phenylpyrazol-3-yl)-thiazole] | 4.36 ± 0.38 µM | 39.5 ± 1.74 µM | 239 to 241 °C | – |
| O=C(c1ccc2ccccc2c1)c1cn(-c2ccccc2)nc1-c1csc(N/N=C/c2ccc(OCCOc3ccc(/C=N/Nc4nc(-c5nn(-c6ccccc6)cc5C(=O)c5ccc6ccccc6c5)cs4)cc3)cc2)n1 [Compound 18a, 1,2-Bis(4-((2-(4-((2-naphthoyl)-1-phenyl-1H-pyrazol-3-yl)thiazol-2-yl)hydrazono)methyl)-phenoxy)ethane] | 8.34 ± 0.48 µM | 39.8 ± 1.59 µM | 187 to 189 °C | – |
| O=C(c1ccc2ccccc2c1)c1cn(-c2ccccc2)nc1-c1csc(N/N=C/c2ccc(OCCCOc3ccc(/C=N/Nc4nc(-c5nn(-c6ccccc6)cc5C(=O)c5ccc6ccccc6c5)cs4)cc3)cc2)n1 [Compound 18b, 1,3-Bis(4-((2-(4-((2-naphthoyl)-1-phenyl-1H-pyrazol-3-yl)thiazol-2-yl)hydrazono)methyl)-phenoxy)propane] | 3.57 ± 0.67 µM | ≥ 50 µM | 200 to 202 °C | IC50 (EGFR kinase): 7.04 nM; LogIC50 (HepG2 liver cancer cells; [4]): 0.5536; IC50 (HepG2 liver cancer cells; [5]): 3.58 µM; viability at 100 µM (HepG2 liver cancer cells; HepG2 cells): 9%; IC50 (HER2 kinase): 16.3 nM; cytotoxicity against THLE2 cells (in words) (THLE2 normal liver cells): safe (non-cytotoxic) |
| O=C(c1ccc2ccccc2c1)c1cn(-c2ccccc2)nc1-c1csc(N/N=C/c2ccc(OCCCCOc3ccc(/C=N/Nc4nc(-c5nn(-c6ccccc6)cc5C(=O)c5ccc6ccccc6c5)cs4)cc3)cc2)n1 [Compound 18c, 1,4-Bis(4-((2-(4-((2-naphthoyl)-1-phenyl-1H-pyrazol-3-yl)thiazol-2-yl)hydrazono)methyl)-phenoxy)butane] | 0.97 ± 0.09 µM | ≥ 50 µM | – | P53 gene expression fold change (P53): 8.6 fold; Bax gene expression fold change (Bax): 8.9 fold; increase of death rate (apoptotic cell death) (HepG2 cells [1]; vs. untreated control): 63.6 fold; late apoptosis (HepG2 cells [1]; AV+/PI+): 26.07%; early apoptosis (HepG2 cells [1]; AV+/PI-): 15.28%; total apoptosis (HepG2 cells [1]; untreated control 0.65%): 41.35%; cell cycle phase at which proliferation is arrested (HepG2 cells [2]): S-phase; cell population at S-phase (HepG2 cells [2]; control 37.8%): 50.5%; IC50 (EGFR kinase): 4.98 nM; LogIC50 (HepG2 liver cancer cells; [4]): -0.01146; enhancement in anti-cancer potency on doubling the pharmacophoric scaffold (HepG2 liver cancer cells; HepG2 IC50 of 18c vs. 8c): about eightfold; IC50 (HepG2 liver cancer cells; [5]): 0.974 µM; viability at 100 µM (HepG2 liver cancer cells; HepG2 cells): 5%; IC50 (HER2 kinase): 9.85 nM; cytotoxicity against THLE2 cells (in words) (THLE2 normal liver cells): safe (non-cytotoxic); caspase-8 gene expression fold change (caspase-8): 2.3 fold; caspase-9 gene expression fold change (caspase-9): 7.6 fold; Bcl-2 gene expression fold change (Bcl-2): 0.34 fold; caspase-3 gene expression fold change (caspase-3): 9 fold |
| O=C(c1ccc2ccccc2c1)c1cn(-c2ccccc2)nc1-c1csc(N/N=C\c2ccccc2OCCOc2ccccc2/C=N\Nc2nc(-c3nn(-c4ccccc4)cc3C(=O)c3ccc4ccccc4c3)cs2)n1 [Compound 21a, 1,2-Bis(2-((2-(4-((2-naphthoyl)-1-phenyl-1H-pyrazol-3-yl)thiazol-2-yl)hydrazono)methyl)-phenoxy)ethane] | 3.26 ± 0.14 µM | ≥ 50 µM | 166 to 168 °C | IC50 (EGFR kinase): 5.8 nM; LogIC50 (HepG2 liver cancer cells; [4]): 0.514; IC50 (HepG2 liver cancer cells; [5]): 3.27 µM; viability at 100 µM (HepG2 liver cancer cells; HepG2 cells): 13%; IC50 (HER2 kinase): 14.2 nM; cytotoxicity against THLE2 cells (in words) (THLE2 normal liver cells): safe (non-cytotoxic) |
| O=C(c1ccc2ccccc2c1)c1cn(-c2ccccc2)nc1-c1csc(N/N=C\c2ccccc2OCCCOc2ccccc2/C=N\Nc2nc(-c3nn(-c4ccccc4)cc3C(=O)c3ccc4ccccc4c3)cs2)n1 [Compound 21b, 1,3-Bis(2-((2-(4-((2-naphthoyl)-1-phenyl-1H-pyrazol-3-yl)thiazol-2-yl)hydrazono)methyl)-phenoxy)propane] | 9.36 ± 0.47 µM | 49.4 ± 2.1 µM | 209 to 211 °C | – |
| O=C(c1ccc2ccccc2c1)c1cn(-c2ccccc2)nc1-c1csc(N/N=C\c2ccccc2OCCCCOc2ccccc2/C=N\Nc2nc(-c3nn(-c4ccccc4)cc3C(=O)c3ccc4ccccc4c3)cs2)n1 [Compound 21c, 1,4-Bis(2-((2-(4-((2-naphthoyl)-1-phenyl-1H-pyrazol-3-yl)thiazol-2-yl)hydrazono)methyl)-phenoxy)butane] | 4.12 ± 0.19 µM | 45.6 ± 1.87 µM | 230 to 232 °C | – |
| CS(=O)(=O)CCNCc1ccc(-c2ccc3ncnc(Nc4ccc(OCc5cccc(F)c5)c(Cl)c4)c3c2)o1 [Lapatinib, reference compound] | 7.45 ± 0.32 µM | ≥ 50 µM | – | – |
